Laboratory results: patent publication US20250009844A1, “MATURATION OF MUCOSAL DEFENSE AND GUT/LUNG FUNCTION IN THE PRETERM INFANT” (Novozymes A/S, priority 2017, published 2025)
Entries after “also recorded” stand apart in the source; their conditions may differ. No end group written: not given here.

Key:
[1] = tested on: PBMC cells; assay: PBMC cell viability, Alamar Blue, 24 hours (Example 8); type: cell-based, human; settings: 1, 10 and 40 μg/ml, 0.6 and 20.0 pg/ml LPS
Protocol: FIG. 39. Cell viability of PBMC cells following exposure for 24 hours to Alamar Blue and HD5, hBD-1, hBD-2, hBD-3 and hBD-4 at concentrations of 1, 10 and 40 μg/ml.
PBMC cell viability following exposure for 24 hours to Alamar Blue and HD5,hBD-1, hBD-2, hBD-3 and hBD-4 at concentrations of 1, 10 and 40 μg/ml at 0.6 and 20.0 pg/ml LPS respectively (FIG. 39).

[2] = tested on: BALB/c mice; assay: Therapeutic intervention in murine house dust mite/Freund's complete adjuvant driven model of allergic asthma, histopathology and cytokines (Example 7); type: in vivo; settings: for Histological inflammation of lung tissue: vs HDM challenged vehicle
Protocol: Treatment regime: Female 7-10 weeks old BALB/c mice randomly allocated into 4 study groups one day prior to study start were subcutaneously (SC) sensitized to house dust mite (100 μg HDM in 200 μL saline plus Freund's complete adjuvant in 0.9% saline). Mice were intranasally (IN) challenged with HDM on day 14 (HDM 25 μg in 50 μL of saline). hBD-2 was administered IN or orally (0.4 mg/kg TID IN; 0.4 mg/kg TID orally, 50 μL phosphate buffered saline) on day 14. The initial dose was administered 60 minutes prior to challenge, and the subsequent doses approximately 6 hours apart (FIG. 3, groups 1-4)).
Blood sampling: All terminal blood samples were collected via jugular vein bleeds. Blood was sampled to Li-heparin tubes, put on ice and immediately centrifuged at 4° C. Plasma was separated and stored at −80° C. until the potential SCFA analysis. Lung tissue sampling: The lungs were exposed and excised by gently opening the thorax and by cutting down either side of the sternum and ribs and trimming back. […]
Cellular influx (mononuclears, eosinophils, neutrophils) was assessed semi-quantitatively on H&E stained slides separately for peri-bronchial/bronchiolar and perivascular space as follows: • 0 absent • 1 few scattered inflammatory cells • 2 larger aggregates • 3 marked accumulation of cells
Overall score for inflammation was calculated as the sum of all individual scores. Goblet cell metaplasia, separately at a level of large airways and distal airways, was assessed at PAS-stained slides as follows: • 0 no mucus containing cells along basement membrane • 1 few positive cells along basement membrane with less than 75% of the cytoplasm stained • 2 few positive cells along basement membrane with more than 75% of the cytoplasm stained • 3 numerous positive cells along basement membrane with less than 75% of the cytoplasm stained • 4 numerous positive cells along basement membrane with more than 75% of the cytoplasm stained […]

[3] = Prophylactic high fat diet murine model, weight change (Example 1); type: in vivo, mice; settings: HFD plus hBD-2 1,2 mg per kg per day in diet vs HFD reference group; 10 week study period; p=0.0028
Excerpt: The overall experimental design is shown in FIG. 1, top panel “Prophylactic study”. Mice: Mice were housed in trios, 4 cages per group. Feed intake was registered daily just before lights were turned off at 6 pm. Individual mice were subjected to experimental procedures in altered order both group and cage wise. Mice were kept at room temperature under a 12-hour light/dark cycle at SPF standard conditions. Diets: For dosing, the average weight was estimated to be 25 grams per mouse. Mice eat approximately 3 grams of feed per mouse per day.
Treatment regime: Mice were fed either a high fat diet (HFD) or a low fat (LF) control diet. The HFD contained 4 subgroups; a) hBD-2, b) HD5, c) hBD-2/HD5 and d) standard HFD without supplementation of defensins. Defensin concentration was 1,2 mg hBD-2 per kg mouse per day. HD5 was given in equimolar concentration to hBD-2.

[4] = tested on: postnatal day 14 C57BL/6J mice; assay: Dithizone/Klebsiella induced necrotizing enterocolitis murine model (Example 9); type: in vivo
Excerpt: FIG. 40. Histological scoring system for evaluation of severity of necrotizing enterocolitis in a murine model of Klebsiella/Dithizone induced necrotizing enterocolitis. >2 indicates significant gut inflammation.
Incidence of necrotizing enterocolitis and IL-22 concentration in a murine model of necrotizing enterocolitis. Intestinal mucosal injury consistent with human necrotizing enterocolitis was induced by a combination of Dithizone followed by Klebsiella pneumonia challenge by oral gavage in postnatal day 14 C57BL/6J mice. The severity of necrotizing enterocolitis was assessed by a histological scoring system with a score of >2 indicating significant damage (FIG. 40). Neither Dithizone nor K. pneumonia challenge induced mucosal injury by themselves, but the combination of Dithizone followed by K. pneumonia challenge induced severe and statistically significant mucosal damage measured 16 hours post challenge (FIG. 41).

For “human beta defensin 2 (GIGDPVTCLKSGAICHPVFCPRRYKQIGTCGLPGTKCCKKP; ends and bridges not checked; cysteine pairing not given here; listed as Homo sapiens) [hBD-2]”, the “Toxicity (PBMC cell viability)” value [1] was “not toxic irrespectively of concentration; also recorded: not to be toxic”, the “Histological inflammation of lung tissue” value ([2]; intranasal 0.4 mg/kg TID on day 14) was “effectively inhibited the increase in histological inflammation of lung tissue” and the “Histological inflammation of lung tissue” value ([2]; oral 0.4 mg/kg TID on day 14) was “effectively inhibited the increase in histological inflammation of lung tissue”. The “IL-5 level in lung tissue homogenate” value ([2]; oral administration) was “Significant effects”, the Weight gain [3] was “gained significantly less weight than the HFD reference group” and the “Concentration of IL-22” value ([4]; 1.2 mg/kg one hour post challenge, 9 hours post challenge) was “statistically significant gut mucosa protective increase of IL-22; also recorded: statistically significantly increased”. The “Incidence of necrotizing enterocolitis (histological score >2)” value ([4]; oral 1.2 mg/kg one dose one hour post K. pneumonia challenge, 16 hours post challenge) was “statistically significant reduction of the incidence of necrotizing enterocolitis; also recorded: dramatically and statistically significantly reduced the incidence of necrotizing enterocolitis to normal”.
